Assay results from patent US20250179103A1, “6-OXODECAHYDROPYRROLO[1,2-A][1,5]DIAZOCINE AND 6-OXODECAHYDRO-4H-PYRROLO[2,1-D][1,5]THIAZOCINE DERIVATIVES AS STAT3 AND STAT6 MODULATORS FOR THE TREATMENT OF CANCER AND INFLAMMATORY CONDITIONS” (Recludix Pharma, Inc., priority 2022, published 2025).

Assays:
[1] = target: T1, Recombinant STAT6 protein (STAT6(W123-T658)) (Homo sapiens, UniProt P42226); assay: STAT6 Fluorescence Polarization (FP) Assay; type: binding; details: STAT6(W123-T658) 250 nM, probe 5-FAM-ApYKPFQDLI-NH2 2 nM, 45-minute incubation
T1 construct: Recombinant STAT6 protein (STAT6(W123-T658))
T1 sequence (P42226 123-658): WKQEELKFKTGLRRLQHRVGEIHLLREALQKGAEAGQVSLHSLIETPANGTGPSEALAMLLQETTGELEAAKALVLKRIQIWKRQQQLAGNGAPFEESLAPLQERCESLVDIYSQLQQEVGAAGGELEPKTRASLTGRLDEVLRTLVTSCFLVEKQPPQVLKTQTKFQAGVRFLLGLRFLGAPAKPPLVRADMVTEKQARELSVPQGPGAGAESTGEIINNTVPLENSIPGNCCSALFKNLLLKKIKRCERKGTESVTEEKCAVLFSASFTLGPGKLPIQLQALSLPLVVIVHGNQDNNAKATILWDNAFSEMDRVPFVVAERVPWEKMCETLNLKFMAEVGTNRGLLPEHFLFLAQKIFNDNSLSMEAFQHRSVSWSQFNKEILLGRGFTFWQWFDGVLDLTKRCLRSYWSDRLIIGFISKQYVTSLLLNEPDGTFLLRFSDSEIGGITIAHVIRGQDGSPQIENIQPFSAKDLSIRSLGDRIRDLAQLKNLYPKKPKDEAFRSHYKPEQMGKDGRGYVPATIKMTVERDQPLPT
Outline: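 Displacement of a fluorescent phosphotyrosine peptide (5-FAM-ApYKPFQDLI-NH2, 2 nM) from STAT6(W123-T658) (250 nM), 1% DMSO, pH 7.4 HEPES buffer. After 45 min at room temperature, polarization (mP) was plotted versus log compound concentration and fitted by nonlinear regression to give IC50.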

[2] = target: T2, Recombinant STAT3 protein (STAT3(G127-I722)) (Homo sapiens, UniProt P40763); assay: STAT3 Fluorescence Polarization (FP) Assay; type: binding; details: STAT3(G127-I722) 25 nM, probe 5-FAM-GpYLPQTV-NH2 2 nM, 45-minute incubation
T2 construct: Recombinant STAT3 protein (STAT3(G127-I722))
Outline: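 Fluorescence polarization after a 45-min room-temperature incubation measured compound displacement of a 2 nM fluorescein-labelled phosphotyrosine peptide (5-FAM-GpYLPQTV-NH2) from 25 nM recombinant STAT3(G127-I722). Buffer was 10 mM HEPES pH 7.4 with 1% DMSO final. IC50s were fitted by nonlinear regression of mP against log concentration.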

T2 sequence (P40763 127-722): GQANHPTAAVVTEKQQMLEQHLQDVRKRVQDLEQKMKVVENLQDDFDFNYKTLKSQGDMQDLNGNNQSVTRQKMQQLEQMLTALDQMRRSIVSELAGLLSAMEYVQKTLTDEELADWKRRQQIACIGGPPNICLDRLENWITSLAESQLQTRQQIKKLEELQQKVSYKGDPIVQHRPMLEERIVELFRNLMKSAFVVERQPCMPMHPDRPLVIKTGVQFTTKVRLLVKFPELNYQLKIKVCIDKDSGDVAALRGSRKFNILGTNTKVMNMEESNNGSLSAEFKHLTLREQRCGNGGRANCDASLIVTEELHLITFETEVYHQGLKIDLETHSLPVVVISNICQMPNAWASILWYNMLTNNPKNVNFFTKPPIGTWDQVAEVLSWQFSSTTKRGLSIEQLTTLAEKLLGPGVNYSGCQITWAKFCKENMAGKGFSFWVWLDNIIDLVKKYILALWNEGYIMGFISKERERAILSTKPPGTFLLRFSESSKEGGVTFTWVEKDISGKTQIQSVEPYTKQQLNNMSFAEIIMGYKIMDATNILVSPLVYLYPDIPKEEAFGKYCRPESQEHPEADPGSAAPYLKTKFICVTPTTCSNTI

| IC50 [1] [nM] | IC50 [2] [nM] | SMILES |
| --- | --- | --- |
| ≤ 300 | 100 to 1000 | CC(=O)N1CC[C@H]2CC[C@@H](C(=O)N3CC[C@@H](c4ccccc4)C3)N2C(=O)[C@@H](NC(=O)c2cc3cc(C(F)(F)P(=O)(O)O)ccc3s2)C1 [Compound 97, ((2-(((5S,8S,10aR)-3-acetyl-6-oxo-8-((S)-3-phenylpyrrolidine-1-carbonyl)decahydropyrrolo[1,2-a][1,5]diazocin-5-yl)carbamoyl)benzo[b]thiophen-5-yl)difluoromethyl)phosphonic acid] |
| 300 to 3000 | 1000 to 10000 | CN(CC(C)(C)C#N)C(=O)[C@@H]1CC[C@@H]2CCN(CC(F)F)C[C@H](NC(=O)c3cc4cc(C(F)(F)P(=O)(O)O)ccc4s3)C(=O)N21 [Compound 264, ((2-(((5S,8S,10aR)-8-((2-cyano-2-methylpropyl)(methyl)carbamoyl)-3-(2,2-difluoroethyl)-6-oxodecahydropyrrolo[1,2-a][1,5]diazocin-5-yl)carbamoyl)benzo[b]thiophen-5-yl)difluoromethyl)phosphonic acid] |
| 3000 to 30000 | ≤ 100 | CN1CCN(c2ccccc2CN2CC[C@H]3CC[C@@H](C(=O)N4CC(c5cccnc5)C4)N3C(=O)[C@@H](NC(=O)c3cc4cc(C(F)(F)P(=O)(O)O)ccc4s3)C2)CC1 [Compound 274, (difluoro(2-(((5S,8S,10aR)-3-(2-(4-methylpiperazin-1-yl)benzyl)-6-oxo-8-(3-(pyridin-3-yl)azetidine-1-carbonyl)decahydropyrrolo[1,2-a][1,5]diazocin-5-yl)carbamoyl)benzo[b]thiophen-5-yl)methyl)phosphonic acid] |
| 300 to 3000 | 1000 to 10000 | CCN1CC[C@H]2CC[C@@H](C(=O)N3C[C@@H](C#N)[C@H](c4cc[nH]c(=O)c4)C3)N2C(=O)[C@@H](NC(=O)c2ccc3ccc(C(F)(F)P(=O)(O)O)cc3c2)C1 (single isomer, unassigned) [Compound 238, ((7-(((5S,8S,10aR)-8-((3R,4S or 3S,4R)-3-cyano-4-(2-oxo-1,2-dihydropyridin-4-yl)pyrrolidine-1-carbonyl)-3-ethyl-6-oxodecahydropyrrolo[1,2-a][1,5]diazocin-5-yl)carbamoyl)naphthalen-2-yl)difluoromethyl)phosphonic acid] |
| 3000 to 30000 | 1000 to 10000 | O=C(N[C@H]1CCNC[C@H]2CC[C@@H](C(=O)N3CC(c4cccnc4)C3)N2C1=O)c1cc2cc(C(F)(F)P(=O)(O)O)ccc2s1 [Compound 212, (difluoro(2-(((5S,8S,10aR)-6-oxo-8-(3-(pyridin-3-yl)azetidine-1-carbonyl)decahydropyrrolo[1,2-a][1,4]diazocin-5-yl)carbamoyl)benzo[b]thiophen-5-yl)methyl)phosphonic acid] |
| 300 to 3000 | > 10000 | O=C(N[C@H]1CN(C(=O)c2noc3c2COCC3)CC[C@H]2CC[C@@H](C(=O)N3CCOCC3)N2C1=O)c1ccc2ccc(C(F)P(=O)(O)O)cc2c1 (stereo partly drawn) [Compound 360, ((7-(((5S,8S,10aR)-3-(6,7-dihydro-4H-pyrano[3,4-d]isoxazole-3-carbonyl)-8-(morpholine-4-carbonyl)-6-oxodecahydropyrrolo [1,2-a][1,5]diazocin-5-yl)carbamoyl)naphthalen-2-yl)fluoromethyl) phosphonic acid] |
| 300 to 3000 | > 10000 | Cc1ccc2onc(C(=O)N3CC[C@H]4CC[C@@H](C(=O)N5CCOCC5)N4C(=O)[C@@H](NC(=O)c4ccc5c(F)cc(CP(=O)(O)O)cc5c4)C3)c2c1 [Compound 379, ((4-fluoro-7-(((5S,8S, 10aR)-3-(5-methylbenzo[d]isoxazole-3-carbonyl)-8-(morpholine-4-carbonyl)-6-oxodecahydropyrrolo [1,2-a][1,5]diazocin-5-yl)carbamoyl)naphthalen-2-yl)methyl)phosphonic acid] |
| 3000 to 30000 | 1000 to 10000 | CC(C)CN1CC[C@H]2CC[C@@H](C(=O)N(C)C)N2C(=O)[C@@H](NC(=O)c2cc3cc(C(F)(F)P(=O)(O)O)ccc3[nH]2)C1 [Compound 224, ((2-(((5S,8S,10aR)-8-(dimethylcarbamoyl)-3-isobutyl-6-oxodecahydropyrrolo[1,2-a][1,5]diazocin-5-yl)carbamoyl)-1H-indol-5-yl)difluoromethyl)phosphonic acid] |
| 300 to 3000 | 100 to 1000 | CC(=O)N1CC[C@H]2CC[C@@H](C(=O)N3CC4CCS(=O)(=O)CC4C3)N2C(=O)[C@@H](NC(=O)c2cc3cc(C(F)(F)P(=O)(O)O)ccc3s2)C1 (stereo partly drawn) [Compound 80, ((2-(((5S,8S,10aR)-3-acetyl-8-(5,5-dioxidooctahydrothiopyrano[3,4-c]pyrrole-2-carbonyl)-6-oxodecahydropyrrolo[1,2-a][1,5]diazocin-5-yl)carbamoyl)benzo[b]thiophen-5-yl)difluoromethyl)phosphonic acid] |
| 300 to 3000 | > 10000 | Cc1ccc2onc(C(=O)N3CC[C@H]4CC[C@@H](C(=O)N5CCOCC5)N4C(=O)[C@@H](NC(=O)c4cc(C#N)c5ccc(CP(=O)(O)O)cc5c4)C3)c2c1 [Compound 378, ((5-cyano-7-(((5S,8S, 10aR)-3-(5-methylbenzo[d]isoxazole-3-carbonyl)-8-(morpholine-4-carbonyl)-6-oxodecahydropyrrolo [1,2-a][1,5]diazocin-5-yl)carbamoyl)naphthalen-2-yl)methyl) phosphonic acid] |
| 300 to 3000 | 1000 to 10000 | CC(=O)N1CC[C@H]2CC[C@@H](C(=O)N3CC[C@@H](C(=O)N4CCCCC4)C3)N2C(=O)[C@@H](NC(=O)c2cc3cc(C(F)(F)P(=O)(O)O)ccc3s2)C1 [Compound 194, ((2-(((5S,8S,10aR)-3-acetyl-6-oxo-8-((R)-3-(piperidine-1-carbonyl)pyrrolidine-1-carbonyl)decahydropyrrolo[1,2-a][1,5]diazocin-5-yl)carbamoyl)benzo[b]thiophen-5-yl)difluoromethyl)phosphonic acid] |
| 300 to 3000 | 100 to 1000 | CC(=O)N1CC[C@H]2CC[C@@H](C(=O)N3CCC4C3CN4c3ccccc3)N2C(=O)[C@@H](NC(=O)c2cc3cc(C(F)(F)P(=O)(O)O)ccc3s2)C1 (stereo partly drawn) [Compound 11, ((2-(((5S,8S,10aR)-3-acetyl-6-oxo-8-(6-phenyl-2,6-diazabicyclo[3.2.0]heptane-2-carbonyl)decahydropyrrolo[1,2-a][1,5]diazocin-5-yl)carbamoyl)benzo[b]thiophen-5-yl)difluoromethyl)phosphonic acid] |
| 300 to 3000 | 100 to 1000 | CC(=O)N1CC[C@H]2CC[C@@H](C(=O)N3CC(c4ccc(=O)[nH]c4)[C@@H](C#N)C3)N2C(=O)[C@@H](NC(=O)c2cc3cc(C(F)(F)P(=O)(O)O)ccc3s2)C1 (relative stereo) [Compound 146, ((2-(((5S,8S,10aR)-3-acetyl-8-((rel-trans)-3-cyano-4-(6-oxo-1,6-dihydropyridin-3-yl)pyrrolidine-1-carbonyl)-6-oxodecahydropyrrolo[1,2-a][1,5]diazocin-5-yl)carbamoyl)benzo[b]thiophen-5-yl)difluoromethyl)phosphonic acid] |
